Values quoted from earlier work, collected in US6743448B2 (priority 2000, dated 2004).

Key:
IGF-I mRNA = settings: relative to hypophysectomized control animals
prostatic cells = settings: 1 nM for 2-7 days
[1] = system: formation of DHT and androstenedione; settings: 14C-testosterone as substrate, effective inhibitory concentrations, n 4, p<0.001

## C[C@]12CCC(=O)C[C@@H]1CC[C@@H]1[C@@H]2CC[C@]2(C)[C@@H](O)CC[C@@H]12 [DHT, dihydrotestosterone]
IGF-I mRNA
  Increase of the IGF-I mRNA level: 40 times

## COc1ccc2[nH]cc(CCNC(C)=O)c2c1 [Melatonin, melatonin]
Prostatic cells
  Effect on cell growth: inhibit cell growth

## CC(=O)[C@H]1CC[C@H]2[C@@H]3CCC4=CC(=O)CC[C@]4(C)[C@H]3CC[C@]12C [Progesterone, progesterone]
[1]
  Inhibition of the formation of DHT: 10 fold
  Inhibition of the formation of androstenedione: 3-5 fold

## C[C@]12CC[C@H]3[C@@H](CCC4=CC(=O)CC[C@@]43C)[C@@H]1CC[C@@H]2O [Testosterone, (17)-17-Hydroxyandrost-4-en-3-one]
IGF-I mRNA
  Increase of the IGF-I mRNA level: 30 times
